Source: PubChem BioAssay AID256 (DTP/NCI, 2004)
Several values for one entry are separate records, joined by “and”; a condition that tells them apart may be missing. Equal values may be shown once. Toxic doses and inconclusive results are not listed.

System: CD2F1 mice, L1210 leukemia ip, survival T/C
Assay: NCI In Vivo Anticancer Drug Screen. Data for tumor model L1210 Leukemia (intraperitoneal) in CD2F1 (CDF1) mice
Details: higher = longer survival
How it was run: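 Antitumor effect is scored in animals hosting a serially transplanted tumor. Values compare compound-dosed animals against vehicle-only controls as a simple quotient.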

[1] = endpoint: mean survival time, dose: 100.0 mg/kg/injection, schedule: Q01DX009 (ip), vehicle: saline with Tween-80
[2] = endpoint: mean survival time, dose: 100.0 mg/kg/injection, schedule: Q04DX003 (ip), vehicle: saline with Tween-80
[3] = endpoint: mean survival time, dose: 200.0 mg/kg/injection, schedule: Q01DX009 (ip), vehicle: saline with Tween-80
[4] = endpoint: mean survival time, dose: 200.0 mg/kg/injection, schedule: Q04DX003 (ip), vehicle: saline with Tween-80
[5] = endpoint: mean survival time, dose: 400.0 mg/kg/injection, schedule: Q01DX009 (ip), vehicle: saline with Tween-80
[6] = endpoint: mean survival time, dose: 400.0 mg/kg/injection, schedule: Q04DX003 (ip), vehicle: saline with Tween-80
[7] = endpoint: mean survival time, dose: 100.0 mg/kg/injection, schedule: Q04DX002 (ip), vehicle: saline with Tween-80

Q: With `O=C1CSC(=S)N1/N=C/c1ccc(Cl)c([N+](=O)[O-])c1` as the compound, how does the T/C [1] read?
A: 92 % of control

Q: What about the T/C [2] of the same compound?
A: 92 % of control

Q: What about the T/C [3] of the same compound?
A: 100 % of control

Q: What about the T/C [4] of the same compound?
A: 95 % of control

Q: And the T/C [5]?
A: 90 % of control

Q: What about the T/C [6] of the same compound?
A: 86 % of control

Q: For `NC(Cc1ccc([N+](=O)[O-])cc1)C(=O)O` (centres undefined), which T/C (endpoint: mean survival time, dose: 100.0 mg/kg/injection, schedule: Q01DX009 (ip), vehicle: saline) is on record?
A: 96 % of control

Q: What about the T/C (endpoint: mean survival time, dose: 100.0 mg/kg/injection, schedule: Q04DX003 (ip), vehicle: saline) of the same compound?
A: 97 % of control

Q: What about the T/C (endpoint: mean survival time, dose: 200.0 mg/kg/injection, schedule: Q01DX009 (ip), vehicle: saline) of the same compound?
A: 98 % of control

Q: And the T/C (endpoint: mean survival time, dose: 200.0 mg/kg/injection, schedule: Q04DX003 (ip), vehicle: saline)?
A: 100 % of control

Q: What about the T/C (endpoint: mean survival time, dose: 400.0 mg/kg/injection, schedule: Q01DX009 (ip), vehicle: saline) of the same compound?
A: 94 % of control

Q: What about the T/C (endpoint: mean survival time, dose: 400.0 mg/kg/injection, schedule: Q04DX003 (ip), vehicle: saline) of the same compound?
A: 103 % of control

Q: How did the T/C [1] turn out when `CC1(C)CC(=O)C2=C(C1)OC1=C(C(=O)CC(C)(C)C1)C2c1ccccc1[N+](=O)[O-]` was run?
A: 100 % of control

Q: What about the T/C [3] of the same compound?
A: 95 % of control

Q: And the T/C [5]?
A: 94 % of control

Q: Which results are given for `CCCC(=O)O.CCCC(=O)O.CCCC(=O)O.CCCC(=O)O.[Rh].[Rh]`?
A: T/C (endpoint: mean survival time, dose: 0.03 mg/kg/injection, schedule: Q01DX009 (ip), vehicle: saline + alcohol): 100 % of control and 104 % of control; T/C (endpoint: mean survival time, dose: 0.06 mg/kg/injection, schedule: Q01DX009 (ip), vehicle: saline + alcohol): 93 % of control and 104 % of control; T/C (endpoint: mean survival time, dose: 0.12 mg/kg/injection, schedule: Q01DX009 (ip), vehicle: saline + alcohol): 96 % of control and 110 % of control; T/C (endpoint: mean survival time, dose: 0.25 mg/kg/injection, schedule: Q01DX009 (ip), vehicle: saline + alcohol): 100 % of control and 104 % of control; T/C (endpoint: mean survival time, dose: 0.5 mg/kg/injection, schedule: Q01DX009 (ip), vehicle: saline + alcohol): 100 % of control and 112 % of control; T/C (endpoint: mean survival time, dose: 1.0 mg/kg/injection, schedule: Q01DX009 (ip), vehicle: saline + alcohol): 102 % of control and 110 % of control

Q: With `CCC1(O)C(=O)OCc2c1cc1n(c2=O)Cc2cc3ccc(C(F)(F)F)cc3nc2-1` (centres undefined) as the compound, how does the T/C (endpoint: median survival time, dose: 10.0 mg/kg/injection, schedule: Q04DX002 (ip), vehicle: saline with Tween-80) read?
A: 103 % of control

Q: And the T/C (endpoint: median survival time, dose: 20.0 mg/kg/injection, schedule: Q04DX002 (ip), vehicle: saline with Tween-80)?
A: 100 % of control

Q: What about the T/C (endpoint: median survival time, dose: 40.0 mg/kg/injection, schedule: Q04DX002 (ip), vehicle: saline with Tween-80) of the same compound?
A: 104 % of control

Q: And the T/C (endpoint: median survival time, dose: 80.0 mg/kg/injection, schedule: Q04DX002 (ip), vehicle: saline with Tween-80)?
A: 104 % of control

Q: With `Cc1occc1S(N)(=O)=O` as the compound, how does the T/C (endpoint: mean survival time, dose: 75.0 mg/kg/injection, schedule: Q04DX002 (ip), vehicle: saline with Tween-80) read?
A: 120 % of control

Q: What does the source list for `O=C(O)c1c(Cl)cccc1Br`?
A: T/C [7]: 95 % of control; T/C (endpoint: mean survival time, dose: 200.0 mg/kg/injection, schedule: Q04DX002 (ip), vehicle: saline with Tween-80): 95 % of control; T/C (endpoint: mean survival time, dose: 400.0 mg/kg/injection, schedule: Q04DX002 (ip), vehicle: saline with Tween-80): 98 % of control

Q: `CN(C)N=Nc1cn[nH]c1C(N)=O` was tested. Which T/C (endpoint: mean survival time, dose: 100.0 mg/kg/injection, schedule: Q01DX009 (ip), vehicle: Klucel (hydroxypropylcellulose) (HPC)) did it give?
A: 172 % of control

Q: Which T/C [1] does the source give for `O=C1OC2(c3ccc(O)cc3Oc3cc(O)ccc32)C2C1C1(Cl)C(Cl)=C(Cl)C2(Cl)C1(Cl)Cl` (centres undefined) here?
A: 101 % of control

Q: What about the T/C [3] of the same compound?
A: 97 % of control

Q: What about the T/C [5] of the same compound?
A: 95 % of control

Q: With `CCc1ccc2ccccc2c1N` as the compound, how does the T/C (endpoint: mean survival time, dose: 50.0 mg/kg/injection, schedule: Q01DX009 (ip), vehicle: saline with Tween-80) read?
A: 108 % of control

Q: And the T/C [1]?
A: 110 % of control

Q: What about the T/C (endpoint: mean survival time, dose: 200.0 mg/kg/injection, schedule: Q01DX001 (ip), vehicle: saline with Tween-80) of the same compound?
A: 94 % of control

Q: And the T/C [3]?
A: 118 % of control

Q: What does the source list for `CCOC(=O)CC(C)(CC(=O)OCC)C(C#N)C(=O)OCC` (centres undefined)?
A: T/C [2]: 116 % of control; T/C [4]: 119 % of control; T/C [6]: 120 % of control

Q: What does the source list for `Cc1ccc(NC(=O)c2cccc(Cl)c2)c(C)c1`?
A: T/C [1]: 100 % of control; T/C [2]: 96 % of control; T/C [3]: 94 % of control; T/C [4]: 100 % of control; T/C [5]: 96 % of control; T/C [6]: 93 % of control

Q: Which results are given for `O=C1C(c2ccccc2)=C2C(=C1c1ccccc1)c1cccc3cccc2c13`?
A: T/C [2]: 92 % of control; T/C [4]: 90 % of control; T/C [6]: 92 % of control

Q: Which T/C (endpoint: mean survival time, dose: 25.0 mg/kg/injection, schedule: Q04DX002 (ip), vehicle: saline with Tween-80) does the source give for `C[PH+](CC[PH+](c1ccccc1)c1ccccc1)c1ccccc1.[C-]#[O+].[C-]#[O+].[C-]#[O+].[C-]#[O+].[Mo]` (centres undefined) here?
A: 93 % of control

Q: And the T/C (endpoint: mean survival time, dose: 50.0 mg/kg/injection, schedule: Q04DX002 (ip), vehicle: saline with Tween-80)?
A: 89 % of control

Q: What about the T/C [7] of the same compound?
A: 89 % of control

Q: What does the source list for `Nc1ccc(SCCCc2c(N)nc(N)nc2N)cc1`?
A: T/C (endpoint: mean survival time, dose: 100.0 mg/kg/injection, schedule: Q01DX001 (ip), vehicle: other): 100 % of control; T/C (endpoint: mean survival time, dose: 200.0 mg/kg/injection, schedule: Q01DX001 (ip), vehicle: other): 96 % of control
